# Patent US20110076283A1, “METHOD FOR PREDICTING AND DIAGNOSING BRAIN TUMOR” (Universite De Lausanne, priority 2008, published 2011)
# Key:
# glioblastoma [1] = conditions: in conjunction with TMZ/RT→TMZ; patients with a methylated MGMT gene promoter; cited from earlier work
# glioblastoma [2] = test: Multivariate Cox proportional hazards model of the treatment effect on survival (chemoradiotherapy versus radiotherapy alone) in glioblastoma patients; type: in vivo, human; conditions: MGMT-methylated patients, multivariate Cox model N = 68
# Method: Gene expression profiles were established from 80 frozen GBM samples obtained from 76 patients, comprising 70 tumors from initial surgery, and 10 samples resected at recurrence, and from four non-neoplastic brain tissue samples. All patients were treated within a phase II, or a randomized phase III trial {Stupp, 2005 #2126} and provided written informed consent for molecular studies of their tumor. The protocol was approved by the ethics committee at each center. Sixty-eight patients with complete molecular and clinical information were included in survival analysis, with a median age of 51 years (range: 26-70 yrs) at enrollment. Thereof, 42 received TMZ/RT→TMZ, while 26 were randomized to RT only. Second-line therapy frequently involved alkylating agents including TMZ. The validation set comprised 76 independent patients of the EORTC/NCIC-study (Stupp et al., 2005), 39 randomized to TMZ/RT→TMZ, and 37 to RT (median age 54 yrs, range 25-69 yrs), whose GBM were available on a tissue microarray. There was no difference in survival as compared to the general trial population, neither in the test population, nor the validation set (P>0.2).
# For each covariate, the hazards ratio, its 95% confidence interval and the associated Wald p-value were examined The Benjamini Hochberg procedure ^s was applied as multiple testing correction method to convert p-values into estimated false discovery rates (FDR). The hazards ratio for a gene (or the mean of a cluster) were standardized by referring them to a variation corresponding to an interquartile range, in order to obtain an interpretable value, for microarray as well as for real-time PCR data. Therefore, the interpretation of an estimated hazard ratio of 1.5 is that the hazard rate increases by 50 percent for an increase of one interquartile range of the log-scale gene expression, independently of the expression level at which it is calculated.
# The log-hazard function was defined as:
# g(t,X,TMZ,MGMT,age,β)=ln [h0(t)]+β1X+β2TMZ+β3MGMT+β4age+β5(X*TMZ)+β6(TMZ*MGMT) […]
# glioblastoma [3] = conditions: glioblastoma patients; in particular with epigenetically silenced MGMT gene; cited from earlier work
Structure (SMILES),anti-tumor activity (glioblastoma [1]),Estimated Hazard Ratios (HR) for Treatment Effect (glioblastoma [2]; G98 expression level 1st quartile),Estimated Hazard Ratios (HR) for Treatment Effect (glioblastoma [2]; G98 expression level 3rd quartile),Estimated Hazard Ratios (HR) for Treatment Effect (glioblastoma [2]; G98 expression level median),survival (glioblastoma [3])
CC(C)[C@H]1C(=O)N[C@@H](CCCN=C(N)N)C(=O)NCC(=O)N[C@@H](CC(=O)O)C(=O)N[C@H](Cc2ccccc2)C(=O)N1C [cilengitide],increased anti-tumor activity,,,,
"Cn1nnc2c(C(N)=O)ncn2c1=O [TMZ/RT→TMZ, temozolomide]",,0.13,0.47,0.25,significantly prolong survival
